Data on 3 compounds can be found in patent US20080095754A1, “OPHTHALMIC COMPOSITIONS COMPRISING DIGLYCINE” (priority 2006, published 2008).

Residues, ends and D or L forms follow the SMILES beside them.

Assay [1] concerns lysozyme. Put plainly: VP-DSC thermal unfolding of lysozyme in formulated solutions. To be noted: for reversibility of thermal denaturation / refolding of lysozyme, VP-DSC: second scan; for increase in the melting temperature of lysozyme: in both VP-DSC and CD. It counts as physicochemical. As for the experimental part: (§1) To evaluate the effect of diglycine on the conformational stability of lysozyme, Formulations 1 and 2 as well as a formulation without diglycine were analyzed by differential scanning calorimetry (DSC) and circular dichroism (CD). Before DSC and CD analysis, a lysozyme solution was prepared in borate buffer, pH 7.3 (sodium borate, 0.09%; boric acid, 0.85%; sodium chloride, 0.22%) at a concentration of 5 mg/mL, and was dialyzed against the formulated solutions containing 0, 1 (Formulation 1), and 3% (Formulation 2) diglycine, at 2-8° C. for 16 hours. Thermal scans were preformed twice to investigate the reversibility of thermal unfolding for both DSC and CD. This study examines the values of melting temperature (Tm), unfolding enthalpies (ΔH), and the ability of the lysozyme to refold upon unfolding for each of the three formulations because these parameters, in general, predict the thermostability of a protein and approximates the susceptibility of a protein to aggegrate and other irreversible changes at lower temperatures.
For the DSC analysis, thermograms were obtained on a VP-DSC (Microcal, USA) at a scan rate of 90° C. per hour from 10° C. to 95° C. All samples were diluted with the formulated solutions to a concentration of 0.5 mg/mL, and degassed for 4 minutes using a vacuum. The thermograms were corrected for the baseline signal and normalized for protein concentration. Using a non-2-state unfolding model, the Tm and the ΔH were determined by Origin software. […]
On the technique in general: Differential scanning calorimetry records heat flow against a reference as temperature is scanned.

The test system of assay [2] is lysozyme. As to the kind of experiment: Far-UV circular dichroism (CD) thermal melting of lysozyme in formulated solutions. It counts as physicochemical. To be noted: for change of lysozyme Tm, CD: glycerin 1%, trehalose 1% and 5%, alone; for reversibility of thermal denaturation / refolding of lysozyme, CD: second scan. The protocol: as §1
CD spectra were conducted on a Jasco-810 Spectropolarimeter. The far-UV CD studies were preformed in a 1-mm pathlength cell at a protein concentration of 0.2 mg/mL, using a scan rate of 50 nm/min from 190 nm to 260 nm and a scan rate of 1° C./min from 20° C. to 95° C. The melting temperatures and the unfolding enthalpies were determined from the denaturation curved obtained from the dependency of the mean residue ellipticity at 230 nm on temperature.
A second experiment screened the additives glycerin, trehalose, and hyaluronic acid (HA) in combination with 1% diglycine, for their ability to stabilize the conformation of lysozyme. VP-DSC and CD were again used to measure the melting temperatures (Tm), unfolding enthalpies (ΔH), and the ability to refold the lysozyme upon unfolding.
Before DSC and CD analysis, the lysozyme solution was prepared in a borate buffer, pH 7.3 (sodium borate, 0.09%; boric acid, 0.85%; sodium chloride, 0.22%) at a concentration of 5 mg/mL. It was then dialyzed against the formulated solutions containing either 1% glycerin, 1% trehalose, 5% trehalose, 1% diglycine and 3% glycerin, or 1% diglycine and 3% trehalose, at 2-8° C. for 16 hours. For the hyaluronic acid formulation, the lysozyme solution was dialyzed against the borate buffer, and subsequently diluted to the desired concentrations with 0.2% of hyaluronic acid for analyses. Thermal scans were performed twice to investigate the reversibility of thermal unfolding for both methods.
The VP-DSC results are supported by the circular dichroism (CD) spectral measurements which were conducted as a function of temperature on a Jasco-810 Spectropolarimeter. The far-UV CD studies were performed in a 1-mm pathlength cell at a protein concentration of 0.2 mg/mL, and a scan rate of 1° C./min form 20° C. to 95° C. The melting temperatures and the Van't Hoff enthalpies were determined from denaturation curves obtained from the mean residue ellipticity at 230 nm as a function of temperature. Tables 2 and 3 summarize the results of the CD measurements and FIGS. 13-18 show the CD-thermal scans.
For orientation: Circular dichroism is widely used to follow secondary structure.

`OC[C@H]1O[C@H](O[C@H]2O[C@H](CO)[C@@H](O)[C@H](O)[C@H]2O)[C@H](O)[C@@H](O)[C@@H]1O` [trehalose]: in the assay on lysozyme [1], the “change of lysozyme Tm, VP-DSC” value is “did not increase” and the “reversibility of thermal denaturation / refolding of lysozyme, VP-DSC” value is given as “not able to refold”. For the same compound, in the assay on lysozyme [2], the “change of lysozyme Tm, CD” value is listed as “did not increase” and the “reversibility of thermal denaturation / refolding of lysozyme, CD” value was “not able to refold”.

On to `NCC(=O)NCC(=O)O` [diglycine] (H-Gly-Gly-OH), for which the “increase in the melting temperature of lysozyme” value in the assay on lysozyme [1] (1% w/w diglycine vs borate buffer) was “approximately 2 °C”; in the assay with lysozyme [1] (3% w/w diglycine vs borate buffer), about 4 °C. Besides, in the assay on lysozyme [1], the “reversibility of thermal denaturation / refolding of lysozyme, VP-DSC” value is reported as “at least partially reversible”. The “reversibility of thermal denaturation / refolding of lysozyme, CD” value in the assay on lysozyme [2] is “at least partially reversible”.

Turning to `OCC(O)CO` [glycerin], in the assay with lysozyme [1], the “change of lysozyme Tm, VP-DSC” value is reported as “did not increase” and the “reversibility of thermal denaturation / refolding of lysozyme, VP-DSC” value is reported as “not able to refold”. Besides, in the assay on lysozyme [2], the “change of lysozyme Tm, CD” value is reported as “did not increase” and the “reversibility of thermal denaturation / refolding of lysozyme, CD” value is on record as “partial refolding phenomenon”.
